Data as given in patent US4362727A, “5-Substituted 9-cyanomethylene-dithieno[3,4-b:4,3-e]-azepines and therapeutic agents which contain these compounds” (priority 1981, dated 1982).

Columns and labels:
[1] = system: orientation hypermotility; assay: Sedative action (orientation hypermotility); assay type: in vivo, female NMRI mice; conditions: mice, oral; clozapine = 1.0
Experimental: 4-8 groups each of 3 female NMRI mice are given the compound orally. The orientation hypermotility induced by a new environment is determined photoelectrically, for a period of 30 minutes, starting 30 minutes after administration of the substances.

[2] = system: tonic extension reflex in the gastrocnemius; assay: Muscle-relaxing action (tonic extension reflex); assay type: in vivo, rabbits; conditions: rabbit, intravenous; for Muscle relaxation R.E.: clozapine = 1.0
Experimental: 2. […] The rabbit is kept in a special apparatus which allows it to flex its paw at the talocalcanean joint in a defined and reproducible manner. The flexing triggers off a tonic extension reflex in the calf muscles. The electrical activity of the muscle during the contraction is recorded, and the individual pulses are counted. The extension (lasting 5 seconds) is repeated at intervals of one minute. […] The numbers of pulses following the administration are compared with the initial values.

[3] = system: methamphetamine-induced sniffing movements; assay: Antimethamphetamine action (methamphetamine antagonism); assay type: in vivo; conditions: rats, intraperitoneal; clozapine = 1.0
Experimental: 3. Antimethamphetamine action
Methamphetamine.HCl (2.5 mg/kg administered intravenously) regularly causes the following symptoms in rats: motor restlessness, searching and sniffing movements, fur standing on end, and tremor (Janssen et al., Arzneim.-Forsch./Drug Res. 13 (1963), 205; and Randrup et al., Psychopharmacologia 11 (1967), 300). The test substances are administered intraperitoneally 30 minutes before methamphetamine. The substance is considered to have an effect if no sniffing movements are observed for a period of 5 minutes after the injection of methamphetamine. The mean inhibition dose (ED50%) is determined, by means of probit analysis, as the dose which prevents the occurrence of the symptom in half the animals.

[4] = system: pilocarpine-induced scratching movements; assay: Anticholinergic action on the central nervous system (pilocarpine); assay type: in vivo; conditions: rats, intraperitoneal; clozapine = 1.0
Experimental: 4. Anticholinergic action on the central nervous system
To test the anticholinergic action on the central nervous system, cholinergic stimulation is triggered off by pilocarpine. After rapid intravenous injection of pilocarpine.HCl (50 mg/kg) rats display alternating scratching movements of their rear paws; further symptoms triggered off in the central nervous system are jaw movements and tremors. […] The test substances are administered intraperitoneally 30 minutes before pilocarpine. The substance is considered to have an effect if no scratching is observed for a period of 2 minutes after the injection of pilocarpine. For this symptom, the mean inhibition dose (ED50%) is determined, by means of probit analysis by the method of Finney, as the dose of the test substance which suppresses the scratching in half the animals.

In the case of CN1CCN(C2=Nc3c(csc3Cl)C(=CC#N)c3cscc32)CC1 (mixture of isomers) [Example 2, Cis/trans-3-chloro-9-cyanomethylene-5-(4-methylpiperazin-1-yl)-dithieno[3,4-b:4',3'-e]azepine], the “Sedation R.E.” value [1] is reported as 0.49 and the “Muscle relaxation R.E.” value [2] is reported as 0.56.
In the case of CCN1CCN(C2=Nc3cscc3C(=CC#N)c3cscc32)CC1 (mixture of isomers) [Example 6, Cis/trans-9-cyanomethylene-5-(4-ethyl-piperazin-1-yl)dithieno[3,4-b:4',3'-e]azepine], the “Sedation R.E.” value [1] is reported as 0.44, the “Methamphetamine antagonism R.E.” value [3] is reported as 0.88 and the “Muscle relaxation R.E.” value [2] is reported as 0.21.
For CN1CCN(C2=Nc3cc(Cl)ccc3Nc3ccccc32)CC1 [Clozapine], the “Sedation R.E.” value [1] was 1.0, the “Methamphetamine antagonism R.E.” value [3] was 1.0 and the “Anticholinergic action on the central nervous system R.E.” value (“Anticholinergic action” for short) [4] was 1.0. For the same compound, the ED50 ([2]; Oryctolagus cuniculus, pulses compared with initial values, read-out: Muscle relaxation ED 50%) was 0.046 mg/kg and the “Muscle relaxation R.E.” value [2] was 1.0.
In the case of CN1CCN(C2=Nc3cscc3C(=CC#N)c3cscc32)CC1 [Example 1a, 9-cyanomethylene-5-(4-methyl-piperazin-1-yl)-dithieno[3,4-b:4',3'-e]azepine], the “Sedation R.E.” value [1] is reported as 0.64, the “Anticholinergic action” value [4] is reported as 1.1 and the “Muscle relaxation R.E.” value [2] is reported as 0.33.
In the case of CN1CCN(C2=Nc3ccccc3Cc3ccccc32)CC1 [Perlapine], the “Methamphetamine antagonism R.E.” value [3] is reported as 1.2, the “Anticholinergic action” value [4] is reported as 0.22 and the “Muscle relaxation R.E.” value [2] is reported as 0.42.
